# Tested on: cardiac allograft
# Experiment: Cardiac allograft rejection in rats: long term graft survival
# Type: in vivo, rat
# Conditions: for Mean Survival Time, extended data set: Table 10b
# Protocol: Animals were obtained from the Animal Resources Centre, Australia. The rats were allowed free access to food and water in a 12-hour light/12-hour dark cycled room. The experimental protocol was approved by the Committee on the Use of Live Animals in Teaching and Research, University of Hong Kong.
# Six rats were used in each treatment group.
# Recipient rats in TGA received hearts harvested from donor […] strain rats.
# Graft survival was analysed using a chi-squared test.
# Example 3 was extended to include a number of alternative treatment groups and additional numbers of animals in certain of the treatment groups already investigated.
# Table 10b below summarises the graft survival rates, including both the original and supplemental data.
structure (smiles),measurement,setting,value
"CN(CCOc1ccc(CC2SC(=O)NC2=O)cc1)c1ccccn1 (centres unmarked) [rosiglitazone, 5-[4-[2-(N-methyl-N-(2-pyridyl)amino)ethoxy]benzyl]thiazolidine-2,4-dione]",Graft survival compared with untreated subjects (TGE),"PPAR-gamma agonist alone at a high dose (TGF, 20 mg/kg/day)",does not show any notable difference
same,Graft survival compared with untreated subjects (TGE),"PPAR-gamma agonist alone at a medium dose (TGB, 5 mg/kg/day)",does not show any notable difference
same,Mean Survival Time,"Table 10, TGA cyclosporin A 20 mg/kg/day i.p. 14 days, TGB rosiglitazone 5 mg/kg/day oral to day 120, TGC both, n=6",15.8 days
same,"Mean Survival Time, extended data set","TGA cyclosporin A 20 mg/kg/day i.p. 14 days, TGB rosiglitazone 5 mg/kg/day oral, TGC both",15.8 days
same,"Mean Survival Time, extended data set","TGF high dose rosiglitazone 20 mg/kg/day oral only, n=6",18.8 days

# — patent US20090082260A1, “COMBINATION OF AN IMMUNOSUPPRESSANT AND A PPAR GAMMA AGONIST FOR THE TREATMENT OF AN UNDESIRABLE IMMUNE RESPONSE” (priority 2005, published 2009)
